Laboratory results from patent publication US8735398B2 (Bristol-Myers Squibb Company, priority 2009, dated 2014).
Read-outs that look alike come from different tables or passages of the source.

Tested on: HCV 1b genotype
Experiment: HCV replicon assay (HCV-neo replicon cells, wild-type)
Assay type: cell-based, Hepatitis C virus
Conditions: HCV 1b genotype replicon
Protocol: An HCV Replicon assay was utilized in the present disclosure, and was prepared, conducted and validated as described in commonly owned PCT/US2006/022197 and in O'Boyle et al., Antimicrob. Agents Chemother, 49(4):1346-1353 (April 2005). Assay methods incorporating luciferase reporters have also been used as described (Apath.com).
HCV-neo replicon cells and replicon cells containing resistance substitutions in the NS5A region were used to test the currently described family of compounds.
The compounds were determined to have differing degrees of reduced inhibitory activity on cells containing mutations vs. the corresponding inhibitory potency against wild-type cells. Thus, the compounds of the present disclosure can be effective in inhibiting the function of the HCV NS5A protein and are understood to be as effective in combinations as previously described in application PCT/US2006/022197 and commonly owned WO 04/014852. It should be understood that the compounds of the present disclosure can inhibit multiple genotypes of HCV. […] In one embodiment, compounds of the present disclosure are inhibitory versus 1a, 1b, 2a, 2b, 3a, 4a, and 5a genotypes.

[1] = Hepatitis C virus, class symbol, read-out: EC50 Range against HCV 1b
[2] = Hepatitis C virus, read-out: EC50 1b
[3] = Hepatitis C virus, class symbols, read-out: EC50 Range against HCV 1b
[4] = class symbol, read-out: EC50 Range against HCV 1b
[5] = class symbols, read-out: EC50 Range against HCV 1b

CC(=O)N1CCC[C@H]1C(=O)Nc1ccc(-c2cc(-c3ccc(NC(=O)[C@@H]4CCCN4C(C)=O)cc3)[nH]n2)cc1 [OL-29, (2S,2′S)-N,N′-(1H-pyrazole-3,5-diyldi-4,1-phenylene)bis(1-acetyl-2-pyrrolidinecarboxamide)]
EC50 [1]: 1000 to 10000 nM
EC50 [2]: 4550 nM

O=C(Nc1ccc(-c2cnc(-c3ccc(NC(=O)[C@@H]4CCCN4C(=O)[C@H]4CCCN4)cc3)o2)cc1)[C@@H]1CCCN1C(=O)[C@H]1CCCN1 [Example D-35, (2S,2′S)-N,N′-(1,3-oxazole-2,5-diyldi-4,1-phenylene)bis(1-((2R)-2-pyrrolidinylcarbonyl)-2-pyrrolidinecarboxamide)]
EC50 [1]: 1000 to 10000 nM
EC50 [2]: 5240 nM

CC(NC(=O)[C@@H](O)c1ccccc1)C(=O)Nc1ccc(-c2cc(-c3ccc(NC(=O)[C@H](C)NC(=O)[C@@H](O)c4ccccc4)cc3)n[nH]2)cc1 (stereo in doubt) [OL-43, (S)-2-((S)-2-hydroxy-2-phenylacetamido)-N-(4-(5-(4-((R)-2-((S)-2-hydroxy-2-phenylacetamido)propanamido)phenyl)-1H-pyrazol-3-yl)phenyl)propanamide]
EC50 [1]: 4.57 to 99 nM

O=C(Nc1ccc(-c2cc(-c3ccc(NC(=O)[C@@H]4C=CCN4C(=O)C4CC4)cc3)[nH]n2)cc1)[C@@H]1C=CCN1C(=O)C1CC1 [OL-37, (2S,2′S)-N,N′-(1H-pyrazole-3,5-diyldi-4,1-phenylene)bis(1-(cyclopropylcarbonyl)-2,5-dihydro-1H-pyrrole-2-carboxamide)]
EC50 [1]: 1000 to 10000 nM

O=C(Nc1ccc(-c2nnc(-c3ccc(NC(=O)[C@@H]4CCCN4C(=O)Cc4cccnc4)cc3)o2)cc1)[C@@H]1CCCN1C(=O)Cc1cccnc1 [Example D-63, (2S,2′S)-N,N′-(1,3,4-oxadiazole-2,5-diyldi-4,1-phenylene)bis[1-(3-pyridinylacetyl)-2-pyrrolidinecarboxamide]]
EC50 [1]: 1000 to 10000 nM
EC50 [2]: 1940 nM

O=C(Nc1ccc(-c2cnc(-c3ccc(NC(=O)[C@@H]4C[C@@H](O)CN4C(=O)c4cccs4)cc3)o2)cc1)[C@@H]1C[C@@H](O)CN1C(=O)c1cccs1 [XY-54, (2S,4R,2′S,4′R)-N,N′-(1,3-oxazole-2,5-diyldi-4,1-phenylene)bis(4-hydroxy-1-(2-thienylcarbonyl)-2-pyrrolidinecarboxamide)]
EC50 [3]: 1000 to 10000 nM

CC1(C(=O)N2CCC[C@H]2C(=O)Nc2ccc(-c3cnc(-c4ccc(NC(=O)[C@@H]5CCCN5C(=O)C5(C)CCC(=O)N5)cc4)o3)cc2)CCC(=O)N1 (stereo partly drawn) [Example D-24, (2S,2′S)-N,N′-(4,4′-(oxazole-2,5-diyl)bis(4,1-phenylene))bis(1-(2-methyl-5-oxopyrrolidine-2-carbonyl)pyrrolidine-2-carboxamide)]
EC50 [4]: 1000 to 10000 nM
EC50 (read-out: EC50 1b): 5140 nM

COc1cccc(CC(=O)N2C[C@H](O)C[C@H]2C(=O)Nc2ccc(-c3cnc(-c4ccc(NC(=O)[C@@H]5C[C@@H](O)CN5C(=O)Cc5cccc(OC)c5)cc4)o3)cc2)c1 [XY-55, (2S,4R,2′S,4′R)-N,N′-(1,3-oxazole-2,5-diyldi-4,1-phenylene)bis(4-hydroxy-1-((3-methoxyphenyl)acetyl)-2-pyrrolidinecarboxamide)]
EC50 [3]: 100 to 999 nM

CC(=O)N1CCC[C@H]1C(=O)Nc1ccc(-c2nc(-c3ccc(NC(=O)C4CC(=O)N(CCc5cccs5)C4)cc3)cs2)cc1 (stereo partly drawn) [Example D-46, (2S)-1-acetyl-N-[4-[4-[4-[[[5-oxo-1-[2-(2-thienyl)ethyl]-3-pyrrolidinyl]carbonyl]amino]phenyl]-2-thiazolyl]phenyl]-2-pyrrolidinecarboxamide]
EC50 [1]: 1000 to 10000 nM

O=C(Nc1ccc(-c2nnc(-c3ccc(NC(=O)[C@@H]4CCCN4C(=O)OCc4ccccc4)cc3)o2)cc1)[C@@H]1CCCN1C(=O)OCc1ccccc1 [MS-8, (2S,2′S)-2,2′-[1,3,4-oxadiazole-2,5-diylbis(4,1-phenyleneiminocarbonyl)]bis-1-pyrrolidinecarboxylic acid, bis(phenylmethyl) ester]
EC50 [1]: 4.57 to 99 nM
EC50 [2]: 90 nM

CC(=O)N1CCC[C@H]1C(=O)Nc1ccc(-c2nc(-c3ccc(NC(=O)[C@@H]4CCCN4C(=O)Cc4ccccc4)cc3)cs2)cc1 [Example D-45, (2S)-1-acetyl-N-(4-(4-(4-((((2S)-1-(phenylacetyl)-2-pyrrolidinyl)carbonyl)amino)phenyl)-1,3-thiazol-2-yl)phenyl)-2-pyrrolidinecarboxamide]
EC50 [1]: 100 to 999 nM

O=C(Nc1ccc(-c2nnc(-c3ccc(NC(=O)[C@@H]4CCCN4C(=O)[C@@H]4CCCO4)cc3)o2)cc1)[C@@H]1CCCN1C(=O)C1CCCO1 (stereo partly drawn) [Example D-60, (S,2S,2′S)-N,N′-(4,4′-(1,3,4-oxadiazole-2,5-diyl)bis(4,1-phenylene))bis(1-((S)-tetrahydrofuran-2-carbonyl)pyrrolidine-2-carboxamide)]
EC50 [1]: 100 to 999 nM
EC50 [2]: 650 nM

O=C(O)CCC(=O)N1CCC[C@H]1C(=O)Nc1ccc(-c2cnc(-c3ccc(NC(=O)[C@@H]4CCCN4C(=O)CCC(=O)O)cc3)o2)cc1 [XY-13, 4,4′-(1,3-oxazole-2,5-diylbis(4,1-phenylenecarbamoyl(2S)-2,1-pyrrolidinediyl))bis(4-oxobutanoic acid)]
EC50 [5]: 1000 to 10000 nM
EC50 (read-out: EC50 1b): 4540 nM

CCC(=O)N1CCC[C@H]1C(=O)Nc1ccc(-c2cc(-c3ccc(NC(=O)[C@@H]4CCCN4C(=O)CC)cc3)[nH]n2)cc1 [OL-32, (2S,2′S)-N,N′-(1H-pyrazole-3,5-diyldi-4,1-phenylene)bis(1-propionyl-2-pyrrolidinecarboxamide)]
EC50 [1]: 1000 to 10000 nM

O=C(Nc1ccc(-c2cnc(-c3ccc(NC(=O)[C@@H]4CCCN4C(=O)c4ccc[nH]4)cc3)o2)cc1)[C@@H]1CCCN1C(=O)c1ccc[nH]1 [XY-33, (2S,2′S)-N,N′-(1,3-oxazole-2,5-diyldi-4,1-phenylene)bis(1-(1H-pyrrol-2-ylcarbonyl)-2-pyrrolidinecarboxamide)]
EC50 [3]: 1000 to 10000 nM

CC(=O)N1CCC[C@H]1C(=O)Nc1ccc(-c2cnc(-c3ccc(NC(=O)C4CCN(C(=O)OCc5ccccc5)C4)cc3)o2)cc1 (stereo partly drawn) [MS-4, benzyl 3-((4-(5-(4-((1-acetyl-L-prolyl)amino)phenyl)-1,3-oxazol-2-yl)phenyl)carbamoyl)-1-pyrrolidinecarboxylate]
EC50 [1]: 100 to 999 nM
EC50 [2]: 901 nM

O=C(Nc1ccc(-c2cnc(-c3ccc(NC(=O)[C@@H]4CCCN4C(=O)c4cc5ccccc5o4)cc3)o2)cc1)[C@@H]1CCCN1C(=O)c1cc2ccccc2o1 [JG-28, (2S,2′S)-N,N′-(1,3-oxazole-2,5-diyldi-4,1-phenylene)bis(1-(1-benzofuran-2-ylcarbonyl)-2-pyrrolidinecarboxamide)]
EC50 [1]: 100 to 999 nM

O=C(Nc1ccc(-c2cnc(-c3ccc(NC(=O)[C@@H]4CCCN4C(=O)c4cccs4)cc3)o2)cc1)[C@@H]1CCCN1C(=O)c1cccs1 [XY-1, (2S,2′S)-N,N′-(1,3-oxazole-2,5-diyldi-4,1-phenylene)bis(1-(2-thienylcarbonyl)-2-pyrrolidinecarboxamide)]
EC50 [3]: 100 to 999 nM

CC(C)(C)OC(=O)N1CCCC1(Cc1ccccc1)C(=O)N1CCC[C@H]1C(=O)Nc1ccc(-c2cnc(-c3ccc(NC(=O)[C@@H]4CCCN4C(=O)C4(Cc5ccccc5)CCCN4C(=O)OC(C)(C)C)cc3)o2)cc1 (stereo partly drawn) [Example D-33, di-tert-butyl 2,2′-(1,3-oxazole-2,5-diylbis(4,1-phenylenecarbamoyl(2S)-2,1-pyrrolidinediylcarbonyl))bis(2-benzyl-1-pyrrolidinecarboxylate)]
EC50 [4]: 1000 to 10000 nM

CN(C)CC(Oc1ccc(Cl)cc1)C(=O)N1CCC[C@H]1C(=O)Nc1ccc(-c2cnc(-c3ccc(NC(=O)[C@@H]4CCCN4C(=O)C(CN(C)C)Oc4ccc(Cl)cc4)cc3)o2)cc1 (stereo partly drawn) [Example D-19, (2S,2′S)-N,N′-(1,3-oxazole-2,5-diyldi-4,1-phenylene)bis(1-(2-(4-chlorophenoxy)-3-(dimethylamino)propanoyl)-2-pyrrolidinecarboxamide)]
EC50 [1]: 100 to 999 nM

O=C(Nc1ccc(-c2cc(-c3ccc(NC(=O)[C@@H]4C=CCN4C(=O)CC4CCCC4)cc3)[nH]n2)cc1)[C@@H]1C=CCN1C(=O)CC1CCCC1 [OL-39, (2S,2′S)-N,N′-(1H-pyrazole-3,5-diyldi-4,1-phenylene)bis[1-(cyclopentylacetyl)-2,5-dihydro-1H-pyrrole-2-carboxamide]]
EC50 [1]: 1000 to 10000 nM

O=C(Nc1ccc(-c2ccc(-c3ccc(NC(=O)[C@@H]4CCCN4C(=O)OCc4ccccc4)cc3)o2)cc1)[C@@H]1CCCN1C(=O)OCc1ccccc1 [JG-54, dibenzyl (2S,2′S)-2,2′-(2,5-furandiylbis(4,1-phenylenecarbamoyl))di(1-pyrrolidinecarboxylate)]
EC50 [1]: 100 to 999 nM

O=C(Nc1ccc(-c2cnc(-c3ccc(NC(=O)[C@@H]4CCCN4C(=O)C4CCCCC4)cc3)o2)cc1)[C@@H]1CCCN1C(=O)C1CCCCC1 [XY-15, (2S,2′S)-N,N′-(1,3-oxazole-2,5-diyldi-4,1-phenylene)bis(1-(cyclohexylcarbonyl)-2-pyrrolidinecarboxamide)]
EC50 [3]: 100 to 999 nM

CN(C)[C@H](C(=O)N1CCC[C@H]1C(=O)Nc1ccc(-c2cnc(-c3ccc(NC(=O)[C@@H]4CCCN4C(=O)[C@H]([C@H](O)c4ccccc4)N(C)C)cc3)o2)cc1)[C@H](O)c1ccccc1 [JR-14, (S,R,2S)-N,N′-(4,4′-(oxazole-2,5-diyl)bis(4,1-phenylene))bis(1-((2S,3R)-2-(dimethylamino)-3-hydroxy-3-phenylpropanoyl)pyrrolidine-2-carboxamide)]
EC50 [5]: 1000 to 10000 nM
